Results from patent publication US12716077B2, “Fermentative production of isoprenoids” (DSM IP ASSETS B.V., priority 2020, dated 2026).

Tests used:
[1] = Loss (consumption, evaporation or other disappearance) of the 2nd phase solvent during the fermentation; design: species or system Yarrowia lipolytica; conditions: loss of initial solvent volume, shake plate assay, after 4 days of growth period
Excerpt: As used herein, the term “not disappearing” in connection with the second phase solvents as defined herein means that the same amount of solvent present at the start of the fermentation is still detectable at the end of the fermentation process. A loss or disappearance of solvent might be due to e.g. consumption by the host cell and/or evaporation during the fermentation. The terms “loss” or “disappearance” are used interchangeably herein. Such solvent as used for the process of the present invention is also called a “stable” solvent. Thus, a stable solvent according to the present invention means a loss or disappearance of the solvent during the fermentation in the range of about 20% or less, e.g. in the range of about 20, 15, 10, 8, 5, 3, 2, 1% or even no loss or disappearance of the solvent during the fermentation.
Shake plate assay. Typically, 200 μl of 0.25% yeast extract, 0.5% peptone (0.25X YP) is inoculated with 10 μl of freshly grown Yarrowia and overlaid with 200 μl of solvent. Candida rugosa Lipase (Creative enzymes) was resuspended in PBS and added to the growth media when the carbon source was 2% corn oil. […] The second phase (Drakeol 5, or others listed in table 6) fraction was removed from the shake plate wells and analyzed by UPLC on a normal phase column and/or C4 HPLC, with a photo-diode array detector (see details below). […]

[2] = Density and viscosity in dependence of the solvent used as 2nd phase; assay type: physicochemical
Experimental: The performance of said 2nd phases were tested with regards to growth, loss (consumption, evaporation or other ways of disappearance) of the solvents during the fermentation and the density and viscosity of the cultivation medium, wherein the test was carried out after 4 days of growth period.

Compound: CCCCCCCCCCCC [dode, n-dodecane]
- Loss [1]: 100%
- Loss ([1]; listed as n-dodecane): completely disappeared
- Density [2]: 0.75 g/mL
- Viscosity ([2]; measured at 20° C.): 1.34
